Experimental data reported in US9051351B2, “Hepatocyte growth factor mimics as therapeutic agents” (Washington State University, priority 2011, dated 2015).
“Also recorded” adds a separate entry of the source. Where a SMILES comes first, the peptide text is derived from it. [ ]: non-standard residue; d: D form. The star is where a group is joined. Hexanoyl = CCCCCC(=O)*; Ahx = NCCCCCC(=O)O

Legend:
Format in all cases: cell-based, rat
c-Met receptor = experiment: c-Met phosphorylation in acute adult hippocampal slices; conditions: 30 minutes
Source text: Adult Sprague-Dawley rats (250 g+) obtained from Harlan Laboratories (Ca, USA) were anesthetized with isofluorane (Vet One™, MWI, Meridian, Id., USA) and decapitated. The brain was rapidly removed and placed into ice-chilled artificial cerebrospinal fluid (aCSF) for approximately 30 s. Both hemispheres were separated by a mid-saggital cut and both hippocampi removed. Slices were sectioned cross- and length-wise (400 μm) to ensure penetrability of the drug, using a Mcllwain tissue chopper (Brinkmann, Gomshall, UK) and transferred to a gassed (95% O2/5% CO2) incubation chamber containing aCSF for 90 minutes at room temperature. Slices were transferred to fresh tubes, aCSF was removed by careful suctioning and replaced with aCSF containing vehicle (aCSF+aCSF), 100 ng/ml with carrier free adult recombinant Hepatocyte Growth Factor (HGF) (R and D Systems, MN, USA) in aCSF, 10^−10 M Hinge (Harding lab), […], 10^−10 M Dihexa (Harding lab) in aCSF, 10^−12 M Dihexa in aCSF or 50 ng/ml HGF+10^−12 M Dihexa in aCSF for 30 minutes at 37° C. with gentle rocking. aCSF was removed and the slices were lysed using RIPA buffer (Upstate/Milipore, Billerica, Mass.) and inhibitor Cocktails I and II (Sigma, St. Louis, Mo.), sonicated on ice and clarified by centrifugation for 30 minutes, 13,000 rpm at 4° C. The supernatant was removed from the pellet and stored at −80° C. or processed immediately for gel electrophoresis.
Protein concentration of the samples was quantified using the BCA method (Pierce, Rockford, Ill.) following the manufacturers protocol. Samples were added to SDS-PAGE buffer and boiled for 10 min. before loading onto a 4-12% Bis-Tris pre-cast gel (Invitrogen, Carlsbad, Calif.) for electrophoresis. Proteins were transferred onto PVDF membranes (Bio Rad, Hercules, Calif.) and blocked with AquaBlock™ (New England Biolabs, Ipswich, Mass.) for 1 hour at room temperature (RT). Primary antibody incubation was done in AquaBlock™ with rabbit anti-Met and […] phospho-Met (Tyr1234/1235) (1:1000, Cell Signaling Technology, Danvers, Mass.) overnight at 4° C. Alternating washes were done with PBS and PBST. Secondary antibody (IRDye) (Rockland, Gilbertsville, Pa.) incubations were done in AquaBlock™ for one hour at RT. Blots were imaged using LI-COR Odyssey Infrared Imaging System (LI-COR Biosciences, Lincoln, Nebr.).

hippocampal neurons = experiment: Dendritic spine counts (spinogenesis) in mRFP-β-actin transfected dissociated hippocampal neurons
CA1 hippocampal neurons = experiment: Spinogenesis in organotypic hippocampal slice cultures; conditions: 10^−12 M Nle1-AngIV or Dihexa, 10 ng/ml HGF; 2 days
Experimental: (§1) Hippocampi from P4 Sprague Dawley rats were cultured as previously described (Wayman, hnpey et al. 2006). Briefly, 400 μm slices were cultured on (Milipore, Billerica, Mass.) for 3 days after which they were biolistically transfected with tomato fluorescent protein (TFP) using a Helios Gen Gun (BioRad, Hercules, Calif.), according to the manufacturer's protocol, to visualize dendritic arbors. Following a 24 hour recovery period slices were stimulated with vehicle (H2O), 1 pM Nle1-AngIV or Dihexa for 2 days. Slices were fixed and mounted. Hippocampal CA1 neuronal processes were imaged and measured as described above.
as §1, with “Impey” for “hnpey”, “Gene” for “Gen”, “with” for “with vehicle (H2O),”, “Slices were fixed and mounted.” left out
Hippocampi from P4 Sprague Dawley rats were cultured as previously described (Wayman, Impey et al. 2006). […] Hippocampal CA1 neuronal processes were imaged and measured as described above.

CCCCCC(=O)N[C@@H](Cc1ccc(O)cc1)C(=O)N[C@H](C(=O)NCCCCCC(N)=O)[C@@H](C)CC [Dihexa, N-hexanoic-Tyr-Ile-(6)-aminohexanoic amide] (Hexanoyl-Tyr-Ile-[Ahx]-NH2)
c-Met phosphorylation vs vehicle (aCSF) (c-Met receptor; saturating doses: HGF 100 ng/ml, Dihexa 10^−10 M): increased c-Met phosphorylation; also recorded: effectively augment c-Met phosphorylation
c-Met phosphorylation vs vehicle (aCSF) (c-Met receptor; sub-threshold doses: HGF 50 ng/ml, Dihexa 10^−12 M): not statistically different from control treated slices; also recorded: did not significantly increase c-Met receptor phosphorylation
increase in the number of spines (hippocampal neurons; 10^−12 M, 5 day treatment, vs vehicle): ~3 fold
mean spine numbers per 50 μm dendrite length (hippocampal neurons; 10^−12 M, acute 30 minute application on DIV12): 23.9 spines per 50 μm dendrite leng
mean spine numbers per 50 μm dendrite length (hippocampal neurons; neurons transfected with mRFP-β-actin alone, HGF 10 ng/ml, Dihexa or Nle1-AngIV 10^−12 M, 48 hours): 21.8 spines per 50 μm dendrite leng
mean spine numbers per 50 μm dendrite length (hippocampal neurons; neurons transfected with mRFP-β-actin and shMet (c-Met knock-down), HGF 10 ng/ml, Dihexa or Nle1-AngIV 10^−12 M): 12.0 spines per 50 μm dendrite leng
spines per 50 μm dendrite length in CA1 hippocampal neurons (CA1 hippocampal neurons): 11 spines per 50 μm dendrite length
